Measured values reported in patent US20260137706A1, “METHODS OF TREATING INFLAMMATORY DISEASES” (INTERLINE THERAPEUTICS, INC., priority 2023, published 2026).
pIC50: −log10 of the molar value. Like-named read-outs stand apart in the source and are kept apart here.

Tests used:
[1] = system: NF-κB pathway (SEAP) in THP1-Dual cells; assay: THP-1 Dual cell SEAP assay (L18-MDP stimulated); format: cell-based; conditions: read-out: NF-κB THP1 IC50 bin
Experimental: THP1-Dual™ cells (InvivoGen Cat #thpd-nfis) allow simultaneous assessment of the NF-κB pathway, by monitoring the activity of secreted embryonic alkaline phosphatase (SEAP) as well as the IRF pathway, by assessing the activity of a secreted luciferase (Lucia). Cells were cultured according to manufacturers' recommendations. For the assay, cell concentration was adjusted to 7.14×10^5 cells/mL in assay media (RPMI 1640, 2 mM L-Glutamine, 25 mM HEPES, 10% fetal bovine serum (heat-inactivated for 30 min at 56° C.), Pen-Strep (100 U/mL)) and 35 µL of cell suspension (˜25,000 cells) per well were added to a flat bottom 384-well plate (white opaque). Plate was centrifuged at 300 g for 2 min, compounds were added in serial dilution series according to the plate layout (volumes ˜500 nL-0.0152 nL) and plate was incubated at 37° C. in 5% CO2 for 30 min. Using assay media, a L18-MDP stock solution, that results in a final concentration of 10 ng/mL L18-MDP in each well when adding 15 μL to each well, was prepared. 15 μL of L18-MDP stock solution was added to each well, while 15 μL of assay media was added to the negative control wells. Plates were subsequently incubated at 37° C. in 5% CO2 overnight (20-24 h).
For the SEAP assay: without disturbing the cells at the bottom of the well, 15 μL supernatant was transferred to a clear 384-well flat bottom plate and 35 μL QUANTI-Blue Solution per well was added. Following a 2 h incubation at 37° C., the optical density (OD) was measured at 620-655 nm using a microplate reader (PheraStar FS microplate reader with protocol for OD 620-655 nm).
Values of media-only wells were subtracted and % inhibition for each compound concentration relative to the DMSO/L18-MDP-treated controls was calculated. Inhibition values+/−SD were fitted by non-linear regression using Prism software (GraphPad PRISM Software) to calculate IC50 values.

[2] = target: T1, binding of His-XIAP(BIR2)-avi fusion protein to GST-RIPK2 fusion protein (RIPK2/XIAP) (Homo sapiens, UniProt O43353); assay: RIPK2-XIAP binding competition PPI assay (TR-FRET); conditions: RIPK2/XIAP binding competition PPI assay; for Emax / PPI Amax bin: Amax; for Emax: read-out: PPI Amax bin; for pIC50: read-out: PPI IC50 bin
T1 construct: made in house; host or cells: baculovirus infected Sf9 cells
T1 sequence (O43353 1-310 limits assumed): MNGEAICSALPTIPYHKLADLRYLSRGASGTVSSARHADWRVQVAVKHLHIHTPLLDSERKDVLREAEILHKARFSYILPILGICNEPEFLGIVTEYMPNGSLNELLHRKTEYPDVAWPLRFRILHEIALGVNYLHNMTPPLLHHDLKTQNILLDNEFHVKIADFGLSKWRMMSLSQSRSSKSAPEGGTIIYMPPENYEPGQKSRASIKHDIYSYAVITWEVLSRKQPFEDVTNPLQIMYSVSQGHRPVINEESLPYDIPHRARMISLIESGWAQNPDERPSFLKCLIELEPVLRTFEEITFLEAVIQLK
Description: The ability of selected compounds of Formula (I) to inhibit the binding of an His-XIAP(BIR2)-avi fusion protein to a GST-RIPK2 fusion protein was quantified employing the TR-FRET-based competition assay as described in the following paragraphs.
Recombinant fusion protein of N-terminal Glutathione-S-Transferase (GST) and a fragment of human RIPK2 (amino acids 1-310 of accession number 043353), expressed in baculovirus infected Sf9 cells, purified via glutathione affinity chromatography, was used as GST-RIPK2 fusion protein. Recombinant fusion protein of N-terminal 6×Histidine (His), a fragment of human XIAP (amino acids 152-231 of accession number P98170), and C-terminal avi tag, expressed in baculovirus infected Sf9 cells, purified via Nickel NTA affinity chromatography, was used as the His-XIAP(BIR2)-avi fusion protein.
For the assay, a working solution of 1 nM GST-RIPK2, 25 nM His-XIAP(BIR2)-avi, 6 nM Anti-His-XL665 […] (Revvity Catalogue No. 61HISXLB), and 0.5 nM Anti-GST-Tb (Revvity Catalogue No. 61GSTTLB) in 25 mM Tris-HCl 7.5, 0.5 mM ethylene glycol-bis(2-aminoethylether)-N,N,N′,N′-tetraacetic acid (EGTA), 10 mM magnesium chloride (MgCl2), 2.5 mM dithiothreitol (DTT), 0.01% (w/v) bovine serum albumin (BSA), 0.005% (w/v) Pluronic F-127 (Sigma), 0.5 mM sodium ortho-vanadate, 5 mM β-Glycerophosphate disodium salt hydrate (BGP) was prepared. 50 nL of a 100-fold concentrated solution of each test compound in DMSO was dispensed via acoustic dispensing into a white low volume 384-well microtiter plate (Perkin Elmer Catalogue No. 6008280). Subsequently, 5 μL of the assay working solution were added.
The resulting mixture was incubated 120 min at 23° C. Subsequently, the amount of complex formed by the GST-RIPK2, XIAP(BIR2)-avi, Anti-His-XL665, and Anti-GST-Tb was evaluated by measurement of the resonance energy transfer from the Tb-cryptate to the XL665. Therefore, the fluorescence emissions at 520 nm and 665 nm after excitation at 337 nm were measured in a TR-FRET reader, e.g. a Pherastar FS (BMG Labtechnologies, Offenburg, Germany) or an Envision (PerkinElmer). The ratio of the emissions at 665 nm and at 520 nm was taken as the measure of the amount of the complex. The data were normalized (assay reaction without inhibitor=0% activity, 50 nM of GSK583=−100% activity).
For the RIPK2/XIAP binding competition PPI assay Amax values, “A” denotes an Amax of ≥80%; “B” denotes an Amax of 80%>B≥55; “C” denotes an Amax of 55%>C>30; and “D” denotes an Amax of ≤30%.

| SMILES | pIC50 ([1]; Homo sapiens, THP1-Dual) | Emax [2] | pIC50 [2] | pIC50 [1] | PPI Amax bin [2] |
| --- | --- | --- | --- | --- | --- |
| CC(F)(CO)COc1cc2ncc(-c3cc(F)c(N)nc3F)n2cc1S(=O)(=O)C(C)(C)C (single isomer, unassigned) [Example 260] | 6.60 to 7.30 | > 80% | 8.60 to 9.00 | – | – |
| CC(F)(CO)COc1cc2ncc(-c3cc(F)c(N)nc3F)n2cc1S(=O)(=O)C(C)(C)C (single isomer, unassigned) [Example 261] | – | – | 8.60 to 9.00 | 6.60 to 7.30 | – |
| CC(F)(CO)COc1cc2ncc(-c3cc(Cl)c(N)nc3F)n2cc1S(=O)(=O)C(C)(C)C (single isomer, unassigned) [Example 265] | 6.60 to 7.30 | > 80% | 8.60 to 9.00 | – | – |
| CC(F)(CO)COc1cc2ncc(-c3cc(Cl)c(N)nc3F)n2cc1S(=O)(=O)C(C)(C)C (single isomer, unassigned) [Example 266] | – | – | 8.60 to 9.00 | 6.60 to 7.30 | A (an Amax of ≥80%) |
| COc1cc2ncc(-c3cc(NS(=O)(=O)c4cnn(C)c4)c(OC)c(OC)c3)n2cc1N1CC(C)CC1=O (single isomer, unassigned) [Example 274] | – | > 80% | 7.70 to 8.60 | 6.00 to 6.60 | – |
| COc1cc2ncc(-c3cc(NS(=O)(=O)c4cnn(C)c4)c(OC)c(OC)c3)n2cc1N1CC(C)CC1=O (single isomer, unassigned) [Example 275] | – | – | 8.60 to 9.00 | 6.60 to 7.30 | A (an Amax of ≥80%) |
| COc1cc2ncc(-c3cc(F)c(OC)c(NC(C)c4cnn(C)c4)c3)n2cc1S(=O)(=O)C(C)(C)C (single isomer, unassigned) [Example 302] | – | > 80% | > 9.00 | > 7.30 | – |
| COc1cc2ncc(-c3cc(F)c(OC)c(NC(C)c4cnn(C)c4)c3)n2cc1S(=O)(=O)C(C)(C)C (single isomer, unassigned) [Example 303] | – | – | 7.70 to 8.60 | 6.00 to 6.60 | A (an Amax of ≥80%) |
| COc1cc2ncc(-c3cc(F)c(OC)c(NS(=O)(=O)c4cnn(C)c4)c3)n2cc1C(F)(F)F [Example 136, N-(3-fluoro-2-methoxy-5-(7-methoxy-6-(trifluoromethyl)imidazo[1,2-a]pyridin-3-yl)phenyl)-1-methyl-1H-pyrazole-4-sulfonamide] | 6.00 to 6.60 | > 80% | 7.70 to 8.60 | – | – |
| COc1cc2ncc(-c3cc(F)c(OC)c(NS(=O)(=O)c4cn[nH]c4)c3)n2cc1C(F)(F)F [Example 137, N-(3-fluoro-2-methoxy-5-(7-methoxy-6-(trifluoromethyl)imidazo[1,2-a]pyridin-3-yl)phenyl)-1H-pyrazole-4-sulfonamide] | 6.00 to 6.60 | > 80% | 7.70 to 8.60 | – | – |
| CCOc1cc2ncc(-c3cc(F)c(OC)c(NS(=O)(=O)c4cnn(C)c4)c3)n2cc1S(=O)(=O)C(C)C [Example 138, N-(5-(7-ethoxy-6-(isopropylsulfonyl)imidazo[1,2-a]pyridin-3-yl)-3-fluoro-2-methoxyphenyl)-1-methyl-1H-pyrazole-4-sulfonamide] | > 7.30 | > 80% | > 9.00 | – | – |
| COc1cc2ncc(-c3cc(F)c(OC)c(NS(=O)(=O)c4c(C)nn(C)c4C)c3)n2cc1S(=O)(=O)C(C)(C)C [Example 139, N-(5-(6-(tert-butylsulfonyl)-7-methoxyimidazo[1,2-a]pyridin-3-yl)-3-fluoro-2-methoxyphenyl)-1,3,5-trimethyl-1H-pyrazole-4-sulfonamide] | < 6.00 | 55 to 80% | < 7.70 | – | – |
| COc1cc2ncc(-c3cc(F)c(OC)c(NS(=O)(=O)c4cn[nH]c4)c3)n2cc1S(=O)(=O)C(C)(C)C [Example 140, N-(5-(6-(tert-butylsulfonyl)-7-methoxyimidazo[1,2-a]pyridin-3-yl)-3-fluoro-2-methoxyphenyl)-1H-pyrazole-4-sulfonamide] | > 7.30 | > 80% | > 9.00 | – | – |
| COc1cc2ncc(-c3cc(F)c(OC)c(NS(=O)(=O)c4cnn(C)c4)c3)n2cc1S(=O)(=O)C(C)C [Example 262, N-(3-fluoro-5-(6-(isopropylsulfonyl)-7-methoxyimidazo[1,2-a]pyridin-3-yl)-2-methoxyphenyl)-1-methyl-1H-pyrazole-4-sulfonamide] | > 7.30 | > 80% | > 9.00 | – | – |
| COc1c(F)cc(-c2cnc3cc(Cl)c(S(=O)(=O)C(C)(C)C)cn23)cc1NS(=O)(=O)c1cnn(C)c1 [Example 263, N-(5-(6-(tert-butylsulfonyl)-7-chloroimidazo[1,2-a]pyridin-3-yl)-3-fluoro-2-methoxyphenyl)-1-methyl-1H-pyrazole-4-sulfonamide] | > 7.30 | > 80% | > 9.00 | – | – |
| COc1c(F)cc(-c2cnc3cc(OC[C@H](C)O)c(S(=O)(=O)C(C)(C)C)cn23)cc1NS(=O)(=O)c1cnn(C)c1 [Example 264, (S)-N-(5-(6-(tert-butylsulfonyl)-7-(2-hydroxypropoxy)imidazo [1,2-a]pyridin-3-yl)-3-fluoro-2-methoxyphenyl)-1-methyl-1H-pyrazole-4-sulfonamide] | > 7.30 | > 80% | > 9.00 | – | – |
| C[C@H](O)COc1cc2ncc(-c3ccc(N)nc3F)n2cc1S(=O)(=O)C(C)(C)C [Example 267, (S)-1-((3-(6-amino-2-fluoropyridin-3-yl)-6-(tert-butylsulfonyl)imidazo [1,2-a]pyridin-7-yl)oxy)propan-2-ol] | < 6.00 | > 80% | 7.70 to 8.60 | – | – |
| C[C@H](O)COc1cc2ncc(-c3cc4cc[nH]c4nc3F)n2cc1S(=O)(=O)C(C)(C)C [Example 268, (S)-1-((6-(tert-butylsulfonyl)-3-(6-fluoro-1H-pyrrolo[2,3-b]pyridin-5-yl)imidazo[1,2-a]pyridin-7-yl)oxy)propan-2-ol] | > 7.30 | > 80% | > 9.00 | – | – |
| COc1c(F)cc(-c2cnc3cc(OC[C@H](C)O)c(S(=O)(=O)C(C)(C)C)cn23)cc1NS(C)(=O)=O [Example 269, (S)-N-(5-(6-(tert-butylsulfonyl)-7-(2-hydroxypropoxy)imidazo[1,2-a]pyridin-3-yl)-3-fluoro-2-methoxyphenyl) methanesulfonamide] | > 7.30 | 55 to 80% | > 9.00 | – | – |
| CCS(=O)(=O)Nc1cc(-c2cnc3cc(OC[C@H](C)O)c(S(=O)(=O)C(C)(C)C)cn23)cc(F)c1OC [Example 270, (S)-N-(5-(6-(tert-butylsulfonyl)-7-(2-hydroxypropoxy)imidazo[1,2-a]pyridin-3-yl)-3-fluoro-2-methoxyphenyl) ethanesulfonamide] | > 7.30 | 55 to 80% | > 9.00 | – | – |
